Source: US5942494A, “Stimulation of gene expression and synthesis of heat shock protein 72/73 (HSP 70)” (The Trustees of Columbia University in the City of New York, priority 1996, dated 1999)
Square brackets hold non-standard residues; d marks the D form. Peptide text beside a SMILES is read from it. Nle = CCCC[C@H](N)C(=O)O

Assays:
[1] = tested on: Hsp86; test: Immunoprecipitation of Hsp86 from radiolabeled HepG2 cells; type: cell-based, human; details: HepG2, ALLN 4 hours
Protocol: (§1) FIGS. 7A-7B: Effects of ALLN on the biosynthesis of other members of Hsp family and related proteins. HepG2 cells were pre-treated and radiolabeled with or without ALLN for 4 hours as described in FIG. 1. Cell lysates were used for SDS-PAGE (A), or for immunoprecipitation with anti-Hsp25, -Hsp27, -Hsp60, -Hsp70, -Hsp86, -Hsp90, -Hsp104, -Bip, or -albumin antibodies respectively (1 μg/ml) (B). Because the anti-Hsp25, -Hsp27, -Hsp60 and Hsp90 antibodies are from a rat source, rabbit anti-rat IgG antibody was added after the first incubation, and the incubation was extended for another 1 hour at 4° C. before collection with protein A-Sepharose.Immunoprecipitates were loaded for SDS-PAGE and aliquoted for scintillation counting and plotting. Each value was presented as mean ±S.D. from three individual culture dishes.
(§2) HepG2 cells were preincubated for 4 hours in serum-free MEM and then radiolabeled with ^3 H-Leucine (150 μCi/ml) in a serum-free, leucine-free medium. […] Cell lysates containing equal amounts of trichloroacetic acid (TCA)-insoluble radioactivity were used for immunoprecipitations by incubating with individual monoclonal antibody (1 μg/ml) for 2.5 hours at 4° C. […]

[2] = tested on: Hsp60; test: Immunoprecipitation of Hsp60 from radiolabeled HepG2 cells; type: cell-based, human; details: HepG2, ALLN 4 hours
Protocol: as §1, §2

## CCCC[C@@H](C=O)NC(=O)[C@H](CC(C)C)NC(=O)[C@H](CC(C)C)NC(C)=O [ALLN, N-acetyl-leucyl-leucyl-norleucinal] (Ac-Leu-Leu-[Nle]-aldehyde)
[1]
  Effect on Hsp86: no effects
[2]
  Effect on Hsp60: no effects
